Drawing on BindingDB's records for patent US20250313563 (The Broad Institute, 2025), this text covers IC50 for 47 compounds.

“And” between values parts separate entries of the source, which are not always exact repeats. Equal values may be shown once.

The target in assay [1] is Glycogen synthase kinase-3 beta (Homo sapiens, UniProt P49841). Nature of the assay: TR-FRET Assay. The essentials: (§1)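 Enzyme and test compound were first incubated together for 30 minutes in assay buffer. The kinase reaction followed and was stopped with EDTA. The pSer641 signal was read by time-resolved FRET.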
Sequence of Glycogen synthase kinase-3 beta (P49841 whole entry): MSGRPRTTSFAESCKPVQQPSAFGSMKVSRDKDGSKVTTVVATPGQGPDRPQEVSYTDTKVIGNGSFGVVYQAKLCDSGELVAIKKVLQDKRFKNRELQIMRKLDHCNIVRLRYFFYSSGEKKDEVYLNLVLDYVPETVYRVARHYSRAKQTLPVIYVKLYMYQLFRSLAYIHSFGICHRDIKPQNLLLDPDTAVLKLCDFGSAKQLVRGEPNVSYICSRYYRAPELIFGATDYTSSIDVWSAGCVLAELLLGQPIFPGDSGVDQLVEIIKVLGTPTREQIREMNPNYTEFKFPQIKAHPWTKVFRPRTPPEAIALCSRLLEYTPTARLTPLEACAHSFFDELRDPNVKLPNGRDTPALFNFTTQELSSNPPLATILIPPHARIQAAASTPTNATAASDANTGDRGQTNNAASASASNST
For assay [2], the target named is Glycogen synthase kinase-3 alpha (Homo sapiens, UniProt P49840). Description: TR-FRET Assay. A digest of the protocol:
as §1
(In TR-FRET formats the signal depends on donor and acceptor labels being close together.)

Sequence of Glycogen synthase kinase-3 alpha (P49840 whole entry): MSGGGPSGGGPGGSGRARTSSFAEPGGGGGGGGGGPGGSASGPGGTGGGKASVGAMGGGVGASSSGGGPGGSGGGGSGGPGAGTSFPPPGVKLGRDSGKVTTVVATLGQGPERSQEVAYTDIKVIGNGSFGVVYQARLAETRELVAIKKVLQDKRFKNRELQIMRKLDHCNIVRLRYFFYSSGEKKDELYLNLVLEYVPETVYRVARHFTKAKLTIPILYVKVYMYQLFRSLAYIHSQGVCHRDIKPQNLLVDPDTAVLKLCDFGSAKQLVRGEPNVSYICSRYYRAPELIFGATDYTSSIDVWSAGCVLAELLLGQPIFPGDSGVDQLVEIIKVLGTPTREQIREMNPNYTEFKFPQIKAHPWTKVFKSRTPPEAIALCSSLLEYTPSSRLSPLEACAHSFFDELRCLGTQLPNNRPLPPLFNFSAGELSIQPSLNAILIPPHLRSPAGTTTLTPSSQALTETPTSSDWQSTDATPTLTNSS

In the case of `C[C@H]1CC(=O)C2=C(C1)NC1=C(CN=N1)C21CCOCC1` [US20250313563, Compound 912078], the IC50 in assay [1] and in assay [2] was 0.1 to 1 µM throughout.

Turning to `CC(C)CC(=O)N1CC2(C1)CC1(CO2)C2=C(N=NC2)NC2=C1C(=O)CC(C)(C)C2` (centres undefined) [US20250313563, Compound 947302], the IC50 in assay [1] and in assay [2] was < 0.1 µM in each case.

As to `CC1(C)CC(=O)C2=C(C1)NC1=C(CN=N1)C21COC2(CN(C(=O)C(C)(C)F)C2)C1` (centres undefined) [US20250313563, Compound 947276], the IC50 in assay [1] and in assay [2] was < 0.1 µM in each case.

Consider `CC1(C)CC(=O)C2=C(C1)NC1=C(CN=N1)[C@@]21CCCC(C)(C)C1` [US20250313563, Compound 883846], for which the results for the IC50 in assay [1] and in assay [2] were 1 to 5 µM and 0.1 to 1 µM, respectively.

For the compound `CCC1(c2cccc(N(C)C(=O)c3ccccc3)c2)C2=CN=NC2NC2=C1C(=O)CC(C)(C)C2` (centres undefined) [US20250313563, Compound 909201], the IC50 in assay [1] was 0.1 to 1 µM; in assay [2], < 0.1 µM.

With `CC[C@@]1(c2cccc(-c3ccnn3C)c2)C2=CN=NC2NC2=C1C(=O)NC1(CCS(=O)(=O)CC1)C2` (some centres undefined) [US20250313563, Compound 949394], the values for the IC50 in assay [1] and in assay [2] were 0.1 to 1 µM and < 0.1 µM, respectively.

Regarding `CC[C@]1(c2cccc(-c3ccncc3C)c2)C2=CN=NC2NC2=C1C(=O)N[C@@]1(CCOC1)C2` (some centres undefined) [US20250313563, Compound 948662], the IC50 in assay [1] was > 5 µM; in assay [2], 1 to 5 µM.

With `C[C@@H]1C[C@H](C)C(=O)C2=C1NC1=C(CN=N1)C21CCOCC1` [US20250313563, Compound 893316], the IC50 is 0.1 to 1 µM in assay [1] and < 0.1 µM in assay [2].

Consider `CC[C@]1(c2cccc(-c3ccnc(C)c3)c2)C2=CN=NC2NC2=C1C(=O)N[C@@]1(CCCOC1)C2` (some centres undefined) [US20250313563, Compound 948144], for which the results for the IC50 in assay [1] and in assay [2] were 0.1 to 1 µM and < 0.1 µM, respectively.

For `CC(=O)N1CC[C@]2(C1)C[C@@]1(CO2)C2=C(N=NC2)NC2=C1C(=O)CC(C)(C)C2` [US20250313563, Compound 948319], the IC50 in assay [1] was 0.1 to 1 µM; in assay [2], < 0.1 µM.

Turning to `CC1(C)CC(=O)C2=C(C1)NC1=C(CN=N1)C21CCS(=O)(=O)CC1` [US20250313563, Compound 896013], the IC50 in assay [1] and in assay [2] was 0.1 to 1 µM throughout.

As to `CC[C@]1(c2cccc(-c3ccnc(C)c3)c2)C2=C(CC3(CCOCC3)NC2=O)NC2N=NC(C)=C21` (some centres undefined) [US20250313563, Compound 948513], the values for the IC50 in assay [1] and in assay [2] were 0.1 to 1 µM and < 0.1 µM, respectively.

With `CC1(C)CC2=C(C(=O)N1)C1(CCN(S(=O)(=O)c3ccc(F)cc3)CC1)C1=C(N=NC1)N2` [US20250313563, Compound 943963], the IC50 in assay [1] and in assay [2] was < 0.1 µM throughout.

Turning to `CC1(C)CC2=C(C(=O)[C@H]1F)C1(CCOCC1)C1=C(N=NC1)N2` [US20250313563, Compound 883836], the results for the IC50 in assay [1] and in assay [2] were 1 to 5 µM and 0.1 to 1 µM, respectively.

In the case of `CC1(C)CC(=O)C2=C(C1)NC1=C(CN=N1)C21CN(c2ccccn2)C1` [US20250313563, Compound 945477], the IC50 in assay [1] and in assay [2] was 1 to 5 µM each time.

Consider `CC[C@@]1(c2cccc(C3CCOCC3)c2)C2=CN=NC2NC2=C1C(=O)CC(C)(C)C2` (some centres undefined) [US20250313563, Compound 819639], for which the IC50 is > 5 µM in assay [1] and 1 to 5 µM in assay [2].

In the case of `CC1(C)CC(=O)C2=C(C1)NC1=C(CN=N1)C21CCN(S(=O)(=O)c2ccccc2Cl)CC1` [US20250313563, Compound 945655], the IC50 in assay [1] and in assay [2] was < 0.1 µM each time.

As to `CC[C@@]1(c2cccc(C(F)(F)F)c2)C2=CN=NC2NC2=C1C(=O)N(c1ccccn1)CC2` (some centres undefined) [US20250313563, Compound 949311], the IC50 in assay [1] is > 5 µM; in assay [2], 0.1 to 1 µM.

For the compound `Cc1cnn(C)c1S(=O)(=O)N1CCC2(CC1)C1=C(N=NC1)NC1=C2C(=O)CC(C)(C)C1` [US20250313563, Compound 945658], the IC50 in assay [1] fell in the range of 1 to 5 µM; in assay [2], 0.1 to 1 µM.

Take `CCC1(c2cccc(-c3cnn4c3CCC4)c2)C2=CN=NC2NC2=C1C(=O)CC(C)(C)C2` (centres undefined) [US20250313563, Compound 947494]: the values for the IC50 in assay [1] and in assay [2] were 0.1 to 1 µM and < 0.1 µM, respectively.

With `CC[C@@]1(c2cccc([C@H]3CCOC3)c2)C2=CN=NC2NC2=C1C(=O)CC(C)(C)C2` (some centres undefined) [US20250313563, Compound 889558], the results for the IC50 in assay [1] and in assay [2] were 0.1 to 1 µM and < 0.1 µM, respectively.

For `CC[C@]1(c2cccc(C3CCCC3)c2)C2=CN=NC2NC2=C1C(=O)CC(C)(C)C2` (some centres undefined) [US20250313563, Compound 949397], the IC50 in assay [1] is < 0.1 µM and 1 to 5 µM; in assay [2], < 0.1 µM and 0.1 to 1 µM.

On to `CC[C@@]1(c2cccc(OC)c2)C2=C(CC(C)(C)NC2=O)NC2N=NC(C)=C21` (some centres undefined) [US20250313563, Compound 949337], for which the IC50 in assay [1] lay within 1 to 5 µM; in assay [2] it was 0.1 to 1 µM.

`CCC1(c2cccc(C3CCCC3)c2)C2=CN=NC2NC2=C1C(=O)CC(C)(C)C2` (centres undefined) [US20250313563, Compound 949082]: the concentration for half-maximal inhibition (IC50) in assay [1] and in assay [2] was < 0.1 µM throughout.

`CN1C[C@@]2(C3=C(CC(C)(C)CC3=O)NC3N=NC(C4CC(F)(F)C4)=C32)c2ccccc21` (some centres undefined) [US20250313563, Compound 119048]: the IC50 in assay [1] was in the range of 0.1 to 1 µM; in assay [2], 1 to 5 µM.

Take `CC1(C)CC(=O)C2=C(C1)NC1=C(CN=N1)C21CCN(S(=O)(=O)c2cnc3cccnn23)CC1` [US20250313563, Compound 948120]: the IC50 in assay [1] is < 0.1 µM and 1 to 5 µM; in assay [2], < 0.1 µM and 0.1 to 1 µM.

For the compound `CCC1(c2cccc(-c3cc(C)ncc3F)c2)C2=C(CC(C)(C)NC2=O)NC2N=NC(C)=C21` (centres undefined) [US20250313563, Compound 948761], the IC50 in assay [1] and in assay [2] was < 0.1 µM each time.

Regarding `CCC1(c2cccc(N(C)c3cc(C)nc(C)c3)c2)C2=CN=NC2NC2=C1C(=O)CC(C)(C)C2` (centres undefined) [US20250313563, Compound 913256], the 50% inhibitory concentration (IC50) in assay [1] is > 5 µM; in assay [2] it was 1 to 5 µM.

`CC1(C)CC(=O)C2=C(C1)NC1=C(CN=N1)C21CN(S(=O)(=O)c2ccccc2F)C1` [US20250313563, Compound 913263]: the IC50 in assay [1] and in assay [2] was 0.1 to 1 µM each time.

For the compound `CC1(C)CC(=O)C2=C(NC3=C(CN=N3)[C@]23CC[C@@H](C(F)(F)F)CC3)C1F` (some centres undefined) [US20250313563, Compound 917135], the half-inhibitory concentration (IC50) in assay [1] is 0.1 to 1 µM; in assay [2], < 0.1 µM.

`Cn1nccc1S(=O)(=O)N1CCC2(CC1)C1=C(N=NC1)NC1=C2C(=O)CC(C)(C)C1` [US20250313563, Compound 932649]: the half-maximal inhibitory concentration (IC50) in assay [1] and in assay [2] was < 0.1 µM each time.

`Cc1ccccc1CC(=O)N1CC2(C1)CC1(CO2)C2=C(N=NC2)NC2=C1C(=O)CC(C)(C)C2` (centres undefined) [US20250313563, Compound 947295]: the IC50 in assay [1] and in assay [2] was < 0.1 µM each time.

In the case of `CC[C@@]1(c2cccc(C(F)(F)F)c2)C2=CN=NC2NC2=C1C(=O)N(c1ccc(F)cc1)CC2` (some centres undefined) [US20250313563, Compound 948225], the IC50 was > 5 µM in assay [1] and 1 to 5 µM in assay [2].

Regarding `CC1(C)CC(=O)C2=C(C1)NC1=C(CN=N1)C21CCN(S(=O)(=O)c2ccc(OC(F)F)cc2)CC1` [US20250313563, Compound 947246], the IC50 in assay [1] was < 0.1 µM and 0.1 to 1 µM; in assay [2] it was < 0.1 µM.

With `CC1(C)CCC2(CC1)C1=C(N=NC1)NC1=C2C(=O)CC(C)(C)C1` [US20250313563, Compound 884107], the IC50 in assay [1] was 0.1 to 1 µM; in assay [2], < 0.1 µM.

`O=C1CC(c2ccccc2)CC2=C1C1(CCOCC1)C1=C(N=NC1)N2` (centres undefined) [US20250313563, Compound 893309]: the IC50 in assay [1] fell in the range of 1 to 5 µM; in assay [2], 0.1 to 1 µM.

As to `CC[C@]1(c2cccc(C(F)(F)F)c2)C2=C(N=NC2)NC2=C1C(=O)NC2` [US20250313563, Compound 917157], the IC50 in assay [1] and in assay [2] was > 5 µM in each case.

Regarding `CC1(C)CC(=O)C2=C(C1)NC1=C(CN=N1)[C@@]21CCN(S(=O)(=O)c2ccccc2)C1` [US20250313563, Compound 951788], the IC50 in assay [1] was < 0.1 µM and 1 to 5 µM; in assay [2] it was < 0.1 µM and 0.1 to 1 µM.

On to `CCC1(c2cccc(-c3cnco3)c2)C2=CN=NC2NC2=C1C(=O)CC(C)(C)C2` (centres undefined) [US20250313563, Compound 944025], for which the results for the IC50 in assay [1] and in assay [2] were 0.1 to 1 µM and < 0.1 µM, respectively.

`CC1(C)CC(=O)C2=C(C1)NC1=C(CN=N1)[C@@]21CCO[C@H](C(F)(F)F)C1` [US20250313563, Compound 884022]: the 50% inhibitory concentration (IC50) in assay [1] and in assay [2] was 0.1 to 1 µM throughout.

On to `CC[C@]1(c2cccc(-c3ccnc(C)c3)c2)C2=CN=NC2NC2=C1C(=O)CC(C)(C)[C@H]2F` (some centres undefined) [US20250313563, Compound 946103], for which the IC50 was in the range of 1 to 5 µM in assay [1] and 0.1 to 1 µM in assay [2].

For `CC[C@@]1(c2cccc(-c3c(C)nn(C)c3C)c2)C2=CN=NC2NC2=C1C(=O)NC(C)(C)C2` (some centres undefined) [US20250313563, Compound 947408], the IC50 in assay [1] is < 0.1 µM and 1 to 5 µM; in assay [2], < 0.1 µM and 0.1 to 1 µM.

With `CC1(C)CC(=O)C2=C(C1)NC1=C(CN=N1)C21COC2(CN(C(=O)C3CCC(F)CC3)C2)C1` (centres undefined) [US20250313563, Compound 947267], the values for the 50% inhibitory concentration (IC50) in assay [1] and in assay [2] were 0.1 to 1 µM and < 0.1 µM, respectively.

In the case of `COc1ccc(S(=O)(=O)N2CCC[C@]3(CC2)C2=CN=NC2NC2=C3C(=O)CC(C)(C)C2)cc1` (some centres undefined) [US20250313563, Compound 932641], the half-maximal inhibitory concentration (IC50) in assay [1] was 0.1 to 1 µM; in assay [2], < 0.1 µM.

Regarding `CC1(C)CC(=O)C2=C(C1)NC1=C(CN=N1)C21CN(CC2CCCC2)C1` [US20250313563, Compound 943914], the IC50 in assay [1] and in assay [2] was > 5 µM in each case.

For the compound `CCC1(c2cccc(N(CC3CCCC3)C(C)=O)c2)C2=CN=NC2NC2=C1C(=O)CC(C)(C)C2` (centres undefined) [US20250313563, Compound 912166], the IC50 in assay [1] and in assay [2] was < 0.1 µM each time.

Regarding `CC[C@@]1(c2cccc(-c3ccnc(C)c3)c2)C2=CN=NC2NC2=C1C(=O)C[C@@]1(CCOC1)C2` (some centres undefined) [US20250313563, Compound 947411], the IC50 in assay [1] and in assay [2] was > 5 µM throughout.

As a reminder, the IC50 is the midpoint of a concentration-inhibition curve. A higher IC50 goes with a need for much substance.
